Laboratory results from patent US10660578B2, “Combining electronic monitoring with inhaled pharmacological therapy to manage cardiac arrhythmias including atrial fibrillation” (InCarda Therapeutics, Inc., priority 2016, dated 2020).

What was measured:
atrial fibrillation = experiment: Administration of diltiazem by inhalation in atrial fibrillation; format: in vivo
Description: Inhalation avoids the initial dilution of drug in the body as compared to intravenous or oral dosing. Inhalation also avoids first-pass metabolism, such as hepatic metabolism. For instance, calcium channel blockers, such as diltiazem, undergo significant hepatic metabolism when taken orally. Inhalation allows rapid delivery of the parent diltiazem compound to the heart as a bolus. […] Thus, administration by inhalation of diltiazem is useful for treating both atrial fibrillation and supraventricular tachycardia (SVT). In contrast, administration by IV of diltiazem is typically only used for converting SVT to normal sinus rhythm and in atrial fibrillation to reduce heart rate (not for converting to normal sinus rhythm). Inhalation also avoids red blood cell metabolism. For instance, the reduced dilution and short route associated with inhalation reduces red blood cell metabolism of esmolol. Inhalation may also avoid reduced blood pressure and fainting. For instance, IV administration of beta blockers, such as esmolol, and/or Class I antiarrhythmics such as flecainide, may reduce mean arterial blood pressure (MAP). Inhalation can allow rapid delivery of esmolol and/or flecainide without reducing MAP. […]

[1] = Assessment of different inhalers with flecainide acetate (FA) solution at 30 mg/ml; format: physicochemical
Procedure: Different inhalers were then tested to assess compatibility of material to the different materials of construction and different types of inhalers (Table 2).
The Trek S from PARI was able to deliver the same dose in about 3 minutes.

PAF = conditions: cited from earlier work
[2] = test system: animal displaying atrial fibrillation; experiment: Treatment of atrial fibrillation by intra-tracheal flecainide, monitored by smartphone ECG and Prucka System; format: in vivo; conditions: intra-tracheal administration of 0.75 mg/kg; animal in atrial fibrillation
Procedure: An exemplary smart phone app was installed on a smartphone in order to monitor the efficacy of FA at ceasing incidence of atrial fibrillation. The smartphone app allowed for communication between the smart phone and an electronic monitoring chip used to produce an ECG.
The smart phone device was then used to monitor the treatment efficacy of an intra-tracheal administration of 0.75 mg/kg flecainide in treating atrial fibrillation. FIG. 9 depicts an exemplary ECG produced from a smartphone as compared to a Prucka System in an animal displaying atrial fibrillation. Again, the traces show excellent correlation between the two devices.

Time to deliver a 30-40 mg dose ([1]; Pari e-rapid or Lumiscope inhalers, 30-40 mg dose) | Time to deliver a 30-40 mg dose ([1]; Trek S from PARI, same 30-40 mg dose) | Compound | Effect on atrial fibrillation rhythm (atrial fibrillation) | Effect on heart rate (atrial fibrillation) | Average time to terminate the PAF (PAF; oral bolus of 300 mg (max per day) at one time) [min] | Effectiveness of oral flecainide (PAF; oral) | Effect on atrial fibrillation (ECG rhythm) [2]
– | – | COc1ccc([C@@H]2Sc3ccccc3N(CCN(C)C)C(=O)[C@@H]2OC(C)=O)cc1 [diltiazem] | converted atrial fibrillation to normal sinus rhythm | reduced heart rate | – | – | –
less than 2 minutes | about 3 minutes | O=C(NCC1CCCCN1)c1cc(OCC(F)(F)F)ccc1OCC(F)(F)F (stereo not shown) [flecainide] | – | – | 100 | 30-50% | return to sinus rhythm
